The record followed here is patent publication US20260274876A1, “3-PYRROLIDINE-INDOLE DIMERS AS SEROTONERGIC AGENTS USEFUL FOR THE TREATMENT OF DISORDERS RELATED THERETO” (MINDSET PHARMA INC., priority 2022, published 2026).

The structures appear in SMILES notation. Where two headings read alike, the source gives them in different places.

For one assay, the target named is T1, human 5-HT1A receptor (Homo sapiens, UniProt P08908).
T1 sequence (P08908 1-422): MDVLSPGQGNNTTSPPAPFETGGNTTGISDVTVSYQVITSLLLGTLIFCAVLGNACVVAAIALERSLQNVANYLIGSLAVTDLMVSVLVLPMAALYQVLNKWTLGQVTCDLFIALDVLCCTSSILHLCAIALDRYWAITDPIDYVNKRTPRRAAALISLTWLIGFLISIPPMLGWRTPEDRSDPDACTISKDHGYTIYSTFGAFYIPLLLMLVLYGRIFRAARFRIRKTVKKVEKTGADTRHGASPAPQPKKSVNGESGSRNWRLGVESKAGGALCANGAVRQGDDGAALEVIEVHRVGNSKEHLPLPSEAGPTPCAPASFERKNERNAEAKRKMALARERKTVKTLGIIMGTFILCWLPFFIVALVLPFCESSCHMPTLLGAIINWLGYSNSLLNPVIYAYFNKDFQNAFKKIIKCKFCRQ
The experiment in a line: Human 5-HT1A radioligand binding assay ([3H]-8-Hydroxy-DPAT). The procedure: The objective of this study was to evaluate the binding properties of test compounds on 5-hydroxytryptamine receptor 1A (5-HT1A).
• 1. The assay buffer was prepared following the table below.
• 2. 8 doses of reference and test compounds were prepared starting from 10 mM stock solution as required by 5-fold serial dilutions with 100% (v/v) DMSO. • 3. UniFilter-96 GF/B plate was pretreated: • i. 50 μl/well of 0.5% (v/v) PEI was added to UniFilter-96 GF/B plates. The plates were sealed and incubated at 4° C. for 3 hrs. • ii. After incubation, the plates were washed 3 times with ice-cold wash buffer (50 mM Tris, pH7.4). • 4. Assay plate was prepared: • i. Cell membrane was diluted with assay buffer and 100 μl/well was added to 96 round well plates to reach a concentration of 20 μg/well. • ii. 8 concentrations of reference or test compounds were prepared and 50 μl/well was added to 96 round deep well plates. • iii. [3H]-8-Hydroxy-DPAT was diluted with assay buffer to 2 nM (4×final concentration) and 50 μl/well was added to 96 round well plates. • 5. The plate was centrifuged at 1000 rpm for 30 secs and then agitated at 600 rpm, R.T. for 5 min. • 6. The plates were sealed and the plate was incubated at 27° C. for 90 min. • 7. The incubation was stopped by vacuum filtration onto GF/B filter plates followed by 4 times washing with ice-cold wash buffer (50 mM Tris, pH7.4). • 8. The plates were dried at 37° C. for 45 min. • 9. The filter plates were sealed and 40 μl/well of scintillation cocktail was added. • 10. The plate was read by using a Microbeta^2 microplate counter.
• 1. For reference and test compounds, the results were expressed as % Inhibition, using the normalization equation: N=100−100×(U−C2)/(C1−C2), where U is the unknown value, C1 is the average of high controls, and C2 is the average of low controls. • 2. The IC50 was determined by fitting percentage of inhibition as a […] of compound concentrations with Hill equation using XLfit.

Another assay deals with human 5-HT2A receptor (Homo sapiens, UniProt P28223). The experiment in a line: Human 5-HT2A functional FLIPR assay (agonist mode). The following applies: for RFU@10 μM: FLIPR, h5-HT2A, curve fitting with activation (%) @ 10 mM with RFU (footnote). The class given is cell-based. The arrangement: expressed in transfected cells. The procedure:
The potential excitatory effects of compounds targeting on human 5-hydroxytryptamine receptor 2A (5-HT2A) under agonist mode was assessed.
HTR2A&Gα15-HEK293 cells were cultured in DMEM medium containing 10% dialyzed FBS and 1×penicillin-streptomycin, 100 μg/mL Hygromycin B and 300 μg/mL G418. The cells were passaged about three times a week, maintained between ~30% to ~90% confluence.
• 1. The cell culture medium (DMEM medium containing 10% dialyzed FBS and 1×penicillin-streptomycin, 100 μg/mL Hygromycin B and 300 μg/mL G418), TrypLE™ Express and DPBS to R.T. was warmed in advance. • 2. For induction, 1 μg/ml tetracycline (final concentration) was added to cell culture medium and incubated for 48 hours prior to seeding cells into plate at 37° C., 5% (v/v) CO2. The cell culture medium was removed from flask. Cells were washed with DPBS. • 3. 2 mL TrypLE™ Express was added to the flask, mixed well by gentle shaking and cells were incubated at 37° C. for a few minutes. • 4. The cells were checked for morphological change under microscope, the digestion was stopped by adding 4 mL cell culture medium to the flask when most of cells turned to round. • 5. The cell suspension was transferred into a 15 mL centrifuge tube, and then centrifuged at 1,200 rpm for 5 minutes. • 6. The supernatant was removed. The cell pellet was resuspended with 2 mL cell culture medium. • 7. The cell density was counted using cell counter. Only cells with >85% viability were used for the assay. • 8. Cells were diluted to 6.67×10^5/mL with cell culture medium. • 9. 30 μL/well cell suspensions added into a 384-well cell plate (The cell density was 20,000 cells/well). • 10. The cell plate was incubated overnight at 37° C., 5% (v/v) CO2.
On the day of experiments, culture medium was removed from the cell plate.
10 μL of assay buffer (20 mM HEPES, in 1×HBSS, pH 7.4) was added to each well of the cell plate.
2×dye solution was prepared following the manual of the FLIPR® Calcium 6 Assay Kit: • i. The dye was diluted with assay buffer. • ii. Probenecid was added to the final concentration of 5 mM. • iii. Vortexed vigorously for 1-2 minutes. • 4. 10 μL of 2×dye solution was added to each well of the cell plate • 5. The cell plate was placed on plate shaker, followed by shaking at 600 rpm for 2 minutes. • 6. The plate was incubated at 37° C. for 2 hours followed by an additional 15-minute incubation at 25° C. 2.4 Prepare 3×compound • 1. Serotonin HCl was prepared to the concentration of 10 mM with DMSO. • 2. The test compounds were prepared to the concentration of 10 mM with DMSO. • 3. The compounds were added to a 384-well compound source plate. • 4. 3-folds serial dilutions were performed with DMSO. • 5. 90 nL/well of serial diluted compounds was transferred from source plate to a 384-well compound plate by using an Echo. • 6. 30 μL/well of assay buffer (20 mM HEPES in 1×HBSS, pH 7.4) was added to the compound plate. • 7. The plate was mixed on-plate shaker for 2 minutes.
• 1. After the cells were incubated with dye solution, the cell plate, compound plate containing 3×compounds and FLIPR tips were placed into FLIPR. • 2. 10 μL of 3×compounds transferred from the compound plate to the cell plate by FLIPR. • 3. The plate was read for 160 sec with 1 sec interval and the data of agonist mode was obtained.
• 1. The normalized fluorescence reading (RFU) was calculated as shown below, wherein Fmax and Fmin stand for maximum and minimum of calcium signal during defined time window:
[formula] • 2. EC50 by fitting RFU against log of compound concentrations with Hill equation was calculated using XLfit.

Setting [1] is: FLIPR agonist mode, HTR2A&Gα15-HEK293 cells, ND: not detected, read-out: h5-HT2A, EC50.

Chain of human 5-HT2A receptor (P28223 whole entry): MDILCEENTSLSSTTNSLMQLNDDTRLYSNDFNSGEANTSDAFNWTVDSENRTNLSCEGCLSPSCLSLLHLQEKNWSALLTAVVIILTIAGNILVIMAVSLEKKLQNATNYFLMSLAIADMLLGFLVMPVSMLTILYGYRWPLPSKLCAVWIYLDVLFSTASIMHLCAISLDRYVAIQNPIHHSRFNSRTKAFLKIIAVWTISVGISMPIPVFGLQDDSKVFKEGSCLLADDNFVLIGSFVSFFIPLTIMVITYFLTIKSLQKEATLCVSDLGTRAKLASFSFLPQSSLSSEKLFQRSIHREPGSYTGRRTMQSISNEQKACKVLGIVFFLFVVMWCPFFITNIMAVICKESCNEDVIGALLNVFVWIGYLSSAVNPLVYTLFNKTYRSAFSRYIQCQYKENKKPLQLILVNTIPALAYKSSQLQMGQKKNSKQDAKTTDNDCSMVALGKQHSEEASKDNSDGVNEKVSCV

For the compound `CN1CCC[C@@H]1Cc1c[nH]c2cccc(O)c12` [Compound 10, (R)-3-((1-methylpyrrolidin-2-yl)methyl)-1H-indol-4-ol], the IC50 at human 5-HT1A receptor turned out to be 148 nM. At human 5-HT2A receptor, it took 47 nM to reach a half-maximal effect (EC50) and the “RFU@10 μM” value was 2929 RFU.

As to `[2H]C([2H])(c1c[nH]c2cccc(O)c12)[C@H]1CCCN1C([2H])([2H])[2H]` [Compound 13, (R)-3-((1-(methyl-d3)pyrrolidin-2-yl)methyl-d2)-1H-indol-4-ol], the IC50 at human 5-HT1A receptor worked out at 156 nM. On human 5-HT2A receptor, the midpoint of the response, the EC50, lay at 44 nM and the “RFU@10 μM” value is on record as 3108 RFU.

In the case of `CN(C)CCc1c[nH]c2cccc(O)c12` [Psilocin, 4-hydroxy-N,N-dimethyltryptamine, reference compound], the IC50 on human 5-HT1A receptor (radioligand binding, [3H]-8-Hydroxy-DPAT, read-out: h5-HT1A, IC50) came out at 196 nM. Also, the “RFU@10 μM” value on human 5-HT2A receptor is given as 308 RFU.

On human 5-HT1A receptor, `[2H]C([2H])(c1c[nH]c2cccc(OC(=O)CCCC(=O)Oc3cccc4[nH]cc(C([2H])([2H])[C@H]5CCCN5C([2H])([2H])[2H])c34)c12)[C@H]1CCCN1C([2H])([2H])[2H]` [Compound I-22, bis(3-(((R)-1-(methyl-d3)pyrrolidin-2-yl)methyl-d2)-1H-indol-4-yl) glutarate] yielded an IC50 of 124 nM. Moreover, the EC50 on human 5-HT2A receptor (setting [1]) came to 13.1 nM. The “RFU@10 μM” value at human 5-HT2A receptor worked out at 5409 RFU.

`CN1CCC[C@@H]1Cc1c[nH]c2cccc(OC(=O)CCCC(=O)Oc3cccc4[nH]cc(C[C@H]5CCCN5C)c34)c12` [Compound I-13, Bis(3-(((R)-1-methylpyrrolidin-2-yl)methyl)-1H-indol-4-yl) glutarate] displayed an IC50 at human 5-HT1A receptor of 154 nM. On human 5-HT2A receptor (setting [1]), the EC50 amounted to 32.3 nM. The “RFU@10 μM” value on human 5-HT2A receptor is listed as 3887 RFU.
